Test [1] concerns enzyme. Briefly: Effect of dithioerythritol (DTE) on substrate sensitivity. As to conditions: dithioerythritol (DTE) at 1 mM. From the text:
Modulators are components used to […] the sensitivity of the enzyme for the leaving group. The modulators speed up or slow down the activity of an enzyme by changing the active site. […] Preferred modulators for particular enzymes are included in Table 1.

In test [2] the test system is Lymphs. Briefly: Peptidases to distinguish leukemia from non-leukemia, lymphocytes. The format is cell-based, human. Set-up: unit not given here. From the text: (§1) Artificial intelligence was used to analyze data of cellular enzyme functions, and determine normal and disease states. Peptidases were used to distinguish leukemia from non-leukemia (output pattern). For input patterns lymphocyte and granulocyte cell types were used with aminopeptidases, cathepsins and dipeptidylpeptidase enzyme activities. In this Example, illustrated in Tables 6A-6C, three normals and three leukemia patients were used as known output patterns for the neural network to learn (in practice, the larger the learning set the more accurate unknown prediction will be). Unknowns were then presented to the learned algorithm as shown in the test case examples. Clinical diagnosis was confirmed by physicians. The trained neural network was able to correctly classify the leukemia from the non-leukemia.

Test [3] relates to Grans. Kind of test: Peptidases to distinguish leukemia from non-leukemia, granulocytes. Format: cell-based, human. Also noted: unit not given here.
Description: as §1

Numbered stars: 1 amine (or outer) side, 2 acyl side, 3 side chain; on linkers, the order of the positions; unused ones are H or OH. Bridge positions count the residues as written; N and C are the ends. Peptide text beside a SMILES is read from it. I, II: the chains in the order shown. Rhodamine110 = O=C1OC2(c3ccc(N[*:1])cc3Oc3cc(N[*:2])ccc32)c2ccccc21

As for `NC(=O)CC[C@H](N)C(=O)N[C@@H](CO)C(=O)Nc1ccc2c(c1)Oc1cc(NC(=O)[C@H](CO)NC(=O)[C@@H](N)CCC(N)=O)ccc1C21OC(=O)c2ccccc21` (relative stereo) [GLN-SER*], the “effect of DTE on sensitivity” value in test [1] is on record as “decreases the sensitivity”.
On the same count and under the same terms, under `C[C@H](N)C(=O)N[C@@H](C)C(=O)Nc1ccc2c(c1)Oc1cc(NC(=O)[C@H](C)NC(=O)[C@H](C)N)ccc1C21OC(=O)c2ccccc21` [ALA-ALA*] stands “decreases the sensitivity”; under `C[C@H](N)C(=O)N[C@@H](C)C(=O)N[C@@H](C)C(=O)N[C@@H](C)C(=O)Nc1ccc2c(c1)Oc1cc(NC(=O)[C@H](C)NC(=O)[C@H](C)NC(=O)[C@H](C)NC(=O)[C@H](C)N)ccc1C21OC(=O)c2ccccc21` [Ala-Ala-Ala-Ala, (H--L Ala--Ala--Ala--Ala)2 Rho 110-2TFA] (I: H-AAAA / II: H-AAAA; linker I:C-II:C via Rhodamine110), “decreases the sensitivity”.
The same measure, in the same setting: the entry for `C[C@H](N)C(=O)NCC(=O)Nc1ccc2c(c1)Oc1cc(NC(=O)CNC(=O)[C@H](C)N)ccc1C21OC(=O)c2ccccc21` [Ala-Gly] is “does not change the sensitivity”.
As for `NC(=O)CC[C@H](N)C(=O)N[C@@H](CO)C(=O)Nc1ccc2c(c1)Oc1cc(NC(=O)[C@H](CO)NC(=O)[C@@H](N)CCC(N)=O)ccc1C21OC(=O)c2ccccc21` [QS, (H--L--Gln--Ser)2 Rho 110-2TFA], the enzyme activity turned out to be 0.05 in test [2] (J4 11/21/91 acute leuk.); 0.01 in test [2] (J4 12/2/91 AL); 0.06 in test [2] (J4 12/3/91 acute leuk.); 0.07 in test [2] (J5 11/27/91 AML); 0.06 in test [2] (J19 11/27/91 CLL); 0.02 in test [2] (J22 12/2/91 AML). Moreover, the enzyme activity is given as 0.02 in test [2] (J22 12/9/91 AML); 0.02 in test [2] (N99° normal); 0.02 in test [2] (N191 normal); 0.03 in test [2] (N192 normal); 0.03 in test [2] (N193 normal); 0.02 in test [2] (N194 normal). The enzyme activity in test [2] (N195 normal) was found to be 0.04; in test [2] (N197 normal), 0.06; in test [2] (N200 normal), 0.01; in test [2] (N201 normal) it was 0.02; in test [2] (N202 normal) it was 0.01; in test [2] (N206 normal), 0.04. Further, the enzyme activity in test [2] (P68 tachycardia) is 0.02; in test [2] (P69 pancreatic CA) it was 0.31; in test [2] (P70 cirrhosis/hemobilia), 0.04; in test [2] (P71 ac. pyelonephritis), 0.05; in test [3] (J4 11/21/91 acute leuk.), 0.22; in test [3] (J4 12/2/91 AL), 0.44. Moreover, the enzyme activity in test [3] (J4 12/3/91 acute leuk.) amounted to 0.19; in test [3] (J5 11/27/91 AML) it was 1.24; in test [3] (J19 11/27/91 CLL), 1.16; in test [3] (J22 12/2/91 AML), 0.10; in test [3] (J22 12/9/91 AML), 0.24; in test [3] (N99° normal) it was 0.05. Further, the enzyme activity stood at 0.19 in test [3] (N191 normal); 0.15 in test [3] (N192 normal); 0.14 in test [3] (N193 normal); 0.07 in test [3] (N194 normal); 0.21 in test [3] (N195 normal); 0.24 in test [3] (N197 normal). Moreover, the enzyme activity came to 0.06 in test [3] (N200 normal); 0.09 in test [3] (N201 normal); 0.08 in test [3] (N202 normal); 0.27 in test [3] (N206 normal); 0.33 in test [3] (P68 tachycardia); 0.37 in test [3] (P69 pancreatic CA). In addition, the enzyme activity is on record as 0.19 in test [3] (P70 cirrhosis/hemobilia) and 0.51 in test [3] (P71 ac. pyelonephritis).
`C[C@@H](O)[C@H](N)C(=O)N1CCC[C@H]1C(=O)Nc1ccc2c(c1)Oc1cc(NC(=O)[C@@H]3CCCN3C(=O)[C@@H](N)[C@@H](C)O)ccc1C21OC(=O)c2ccccc21` [TP]: the enzyme activity in test [2] (J4 11/21/91 acute leuk.) is given as 2.30; in test [2] (J4 12/2/91 AL) it was 1.46; in test [2] (J4 12/3/91 acute leuk.), 1.18; in test [2] (J5 11/27/91 AML), 1.32; in test [2] (J19 11/27/91 CLL) it was 0.50; in test [2] (J22 12/2/91 AML) it was 0.99. Further, the enzyme activity in test [2] (J22 12/9/91 AML) was found to be 1.02; in test [2] (N99° normal) it was 1.86; in test [2] (N191 normal), 2.14; in test [2] (N192 normal), 2.12; in test [2] (N194 normal) it was 1.82; in test [2] (N195 normal), 1.90. In addition, the enzyme activity in test [2] (N197 normal) was found to be 1.96; in test [2] (N200 normal), 2.39; in test [2] (N201 normal), 1.88; in test [2] (N202 normal), 2.49; in test [2] (N206 normal), 2.89; in test [2] (P68 tachycardia) it was 1.90. Moreover, the enzyme activity in test [2] (P69 pancreatic CA) worked out at 2.26; in test [2] (P70 cirrhosis/hemobilia) it was 1.89; in test [2] (P71 ac. pyelonephritis) it was 1.86; in test [3] (J4 11/21/91 acute leuk.) it was 5.96; in test [3] (J4 12/2/91 AL), 2.59; in test [3] (J4 12/3/91 acute leuk.), 1.93. Further, the enzyme activity is reported as 2.72 in test [3] (J5 11/27/91 AML); 2.95 in test [3] (J19 11/27/91 CLL); 2.33 in test [3] (J22 12/2/91 AML); 2.51 in test [3] (J22 12/9/91 AML); 3.71 in test [3] (N99° normal); 4.73 in test [3] (N191 normal). For the same compound, the enzyme activity in test [3] (N192 normal) was determined as 4.62; in test [3] (N193 normal), 4.96; in test [3] (N194 normal), 3.77; in test [3] (N195 normal) it was 3.74; in test [3] (N197 normal) it was 3.82; in test [3] (N200 normal), 4.69. In addition, the enzyme activity in test [3] (N201 normal) is given as 4.23; in test [3] (N202 normal) it was 4.44; in test [3] (N206 normal), 5.98; in test [3] (P68 tachycardia), 4.63; in test [3] (P69 pancreatic CA) it was 4.21; in test [3] (P70 cirrhosis/hemobilia) it was 4.02. Also, the enzyme activity in test [3] (P71 ac. pyelonephritis) stood at 4.37.
As for `CC(C)[C@H](N)C(=O)N[C@@H](CO)C(=O)Nc1ccc2c(c1)Oc1cc(NC(=O)[C@H](CO)NC(=O)[C@@H](N)C(C)C)ccc1C21OC(=O)c2ccccc21` [VS, (H--L--Val--Ser)2 Rho 110-2TFA], the enzyme activity in test [2] (J4 11/21/91 acute leuk.) came to 0.05; in test [2] (J4 12/2/91 AL), 0.03; in test [2] (J4 12/3/91 acute leuk.) it was 0.04; in test [2] (J5 11/27/91 AML), 0.05; in test [2] (J19 11/27/91 CLL) it was 0.01; in test [2] (J22 12/2/91 AML), 0.01. Further, the enzyme activity in test [2] (J22 12/9/91 AML) is 0.04; in test [2] (N99° normal) it was 0.03; in test [2] (N191 normal), 0.14; in test [2] (N192 normal), 0.08; in test [2] (N193 normal) it was 0.09; in test [2] (N194 normal), 0.07. The enzyme activity in test [2] (N195 normal) was determined as 0.06; in test [2] (N197 normal) it was 0.11; in test [2] (N200 normal), 0.06; in test [2] (N201 normal) it was 0.07; in test [2] (N202 normal), 0.04; in test [2] (N206 normal), 0.28. Further, the enzyme activity is 0.05 in test [2] (P68 tachycardia); 0.18 in test [2] (P69 pancreatic CA); 0.04 in test [2] (P70 cirrhosis/hemobilia); 0.08 in test [2] (P71 ac. pyelonephritis); 0.37 in test [3] (J4 11/21/91 acute leuk.); 0.14 in test [3] (J4 12/2/91 AL). Moreover, the enzyme activity was determined as 0.23 in test [3] (J4 12/3/91 acute leuk.); 1.13 in test [3] (J5 11/27/91 AML); 2.83 in test [3] (J19 11/27/91 CLL); 0.22 in test [3] (J22 12/2/91 AML); 0.32 in test [3] (J22 12/9/91 AML); 0.14 in test [3] (N99° normal). Besides, the enzyme activity in test [3] (N191 normal) was 0.64; in test [3] (N192 normal), 0.40; in test [3] (N193 normal), 0.44; in test [3] (N194 normal) it was 0.29; in test [3] (N195 normal) it was 0.37; in test [3] (N197 normal), 0.58. The enzyme activity came to 0.24 in test [3] (N200 normal); 0.32 in test [3] (N201 normal); 0.24 in test [3] (N202 normal); 1.03 in test [3] (N206 normal); 0.33 in test [3] (P68 tachycardia); 0.57 in test [3] (P69 pancreatic CA). For the same compound, the enzyme activity in test [3] (P70 cirrhosis/hemobilia) is 0.26; in test [3] (P71 ac. pyelonephritis), 0.69.
On to `CC(C)[C@H](N)C(=O)N[C@@H](CCCCN)C(=O)N[C@H](C(=O)N[C@@H](CCCCN)C(=O)Nc1ccc2c(c1)Oc1cc(NC(=O)[C@H](CCCCN)NC(=O)[C@@H](NC(=O)[C@H](CCCCN)NC(=O)[C@@H](N)C(C)C)C(C)C)ccc1C21OC(=O)c2ccccc21)C(C)C` [Val-Lys-Val-Lys, (H--L--Val--Lys--Val--Lys)2 Rho 110-6TFA] (I: H-VKVK / II: H-VKVK; linker I:C-II:C via Rhodamine110), for which the “effect of DTE on sensitivity” value in test [1] is reported as “decreases the sensitivity”.

Values taken from patent US5733719A, “Method of making an assay compound” (priority 1995, dated 1998).
